Experimental data: publication PMC10540216, “Activity Guided Azide-methyllysine Photo-trapping for Substrate Profiling of Lysine Demethylases” (Journal of the American Chemical Society, 2023)
“Also recorded” adds a separate entry of the source. Where no end group is shown, it is not given here. [ ]: non-standard residue; d: D form. Lys(Me3) = C[N+](C)(C)CCCC[C@H](N)C(=O)O

Legend:
KDM4A-E = test: Demethylase activity of KDM4 subfamily on peptide substrates (MALDI-TOF MS), result worded for KDM4A-E together; format: biochemical, human; conditions: wild-type KDM4A-E, 10 µM enzyme, 10 µM peptide, 1 mM 2OG, 50 mM Tris pH 8, 37°C, three hours
KDM4A-I71AzF = test: CASI: photo-crosslinking with HEK293T cell extracts, StrepTactin enrichment and LC-MS/MS proteomics; format: binding, human; conditions: sheet "Final results but with 0.01";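 also: lysates from HEK293T cells pretreated with a KDM4 inhibitor to raise proteome methylation, affinity-purified after ±UV, gel-resolved, trypsin-digested, with exclusive unique peptides per protein averaged per condition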

| Substance | demethylation by KDM4A-E (KDM4A-E) | Fold change (+UV/-UV) (KDM4A-I71AzF) |
| --- | --- | --- |
| AEVTRTAR[Lys(Me3)]QSAQKRVL [compound 16, Nup107-K25me3 peptide] | demethylated by multiple KDM4s; also recorded: robust demethylation | – |
| ALMLENLQ[Lys(Me3)]HSTPHAAF [compound 9, ACINUS-K113me3 peptide] | failed to undergo demethylation by KDM4A-E | – |
| ATPB_HUMAN | – | 0.5789 |
| BRE1A_HUMAN | – | 0.1667 |
| BRE1B_HUMAN | – | 0.25 |
| CCAR2_HUMAN | – | 0.75 |
| CHD4_HUMAN | – | 0.3333 |
| CLH1_HUMAN | – | 1 |
| CLPX_HUMAN | – | 1.5 |
| CMC2_HUMAN | – | 0.5 |
| COR1C_HUMAN | – | 0 |
| DESP_HUMAN | – | 0.2222 |
| DHE3_HUMAN | – | 1.727 |
| DHSA_HUMAN | – | 1 |
| DHX9_HUMAN | – | 0.7895 |
| DNMT1_HUMAN | – | 0 |
| DOCK7_HUMAN | – | 0.8 |
| ECHA_HUMAN | – | 1 |
| ENPL_HUMAN | – | 1.25 |
| ESYT1_HUMAN | – | 1 |
| FAS_HUMAN | – | 0.3889 |
| FILA2_HUMAN | – | 0.75 |
| FLNA_HUMAN | – | 0.3571 |
| FNRMPIAR[Lys(Me3)]IIKDGEQH [compound 8, AIFM1-K590me3 peptide] | failed to undergo demethylation; also recorded: not recognized as KDM4 substrates | – |
| FTO_HUMAN | – | 1 |

| Substance | demethylation by KDM4A-E (KDM4A-E) | Fold change (+UV/-UV) (KDM4A-I71AzF) |
| --- | --- | --- |
| G3BP1_HUMAN | – | 0 |
| G3P_HUMAN | – | 0.5 |
| GGATSSAR[Lys(Me3)]NRWDEPTK [compound 12, SF3B1-K290me3 peptide] | failed to undergo demethylation; also recorded: not recognized as KDM4 substrates | – |
| GRP75_HUMAN | – | 0.7931 |
| GRP78_HUMAN | – | 0.5556 |
| GUAA_HUMAN | – | 0.6364 |
| H12_HUMAN | – | 700 |
| HEAT1_HUMAN | – | 0 |
| HNRPK_HUMAN | – | 1.273 |
| HNRPU_HUMAN | – | 0.6 |
| HORN_HUMAN | – | 0 |
| HS90B_HUMAN | – | 0.75 |
| HSP7C_HUMAN | – | 0.7407 |
| HSP71_HUMAN | – | 0.6154 |
| I2BP2_HUMAN | – | 0.3333 |
| IF4A1_HUMAN | – | 200 |
| IF4G1_HUMAN | – | 0 |
| INT3_HUMAN | – | 2 |
| K2C4_HUMAN | – | 10 |
| KCRU_HUMAN | – | 200 |
| KGPDEAKI[Lys(Me3)]ALLERTGY [compound 11, hnRNPQ-K125me3 peptide] | failed to undergo demethylation by KDM4A-E; also recorded: not recognized as KDM4 substrates | – |
| KPYM_HUMAN | – | 1.667 |
| KRT82_HUMAN | – | 200 |
| LAMP2_HUMAN | – | 2 |
| MAOM_HUMAN | – | 1.714 |

| Substance | demethylation by KDM4A-E (KDM4A-E) | Fold change (+UV/-UV) (KDM4A-I71AzF) |
| --- | --- | --- |
| MCM7_HUMAN | – | 0.3333 |
| MPRI_HUMAN | – | 0 |
| MPSASASR[Lys(Me3)]SQEKPREI [compound 14, SYDC-K9me3 peptide] | not recognized as KDM4 substrates | – |
| MSH6_HUMAN | – | 0.5 |
| MYH9_HUMAN | – | 0 |
| NU205_HUMAN | – | 0.6667 |
| NU214_HUMAN | – | 2 |
| NUMA1_HUMAN | – | 0 |
| PABP1_HUMAN | – | 0.8571 |
| PO210_HUMAN | – | 0.1538 |
| PRKDC_HUMAN | – | 0.5 |
| PRP8_HUMAN | – | 0.32 |
| PTBP1_HUMAN | – | 1.2 |
| PYR1_HUMAN | – | 0.125 |
| RBM25_HUMAN | – | 0 |
| RBP56_HUMAN | – | 1 |
| RIF1_HUMAN | – | 1 |
| RRP5_HUMAN | – | 0 |
| RSASSNSR[Lys(Me3)]SLSPGVSR [compound 10, Acinus-K654me3 peptide] | demethylated by multiple KDM4s; also recorded: robust demethylation | – |
| RU17_HUMAN | – | 1 |
| SCRIB_HUMAN | – | 3 |
| SMCA5_HUMAN | – | 0 |
| SP16H_HUMAN | – | 0.2857 |
| SPTN1_HUMAN | – | 0 |
| SRAHSSHLKme3SKKGQSTS [compound 18, P53-K370me3 peptide] | failed to undergo demethylation by KDM4A-E | – |

| Substance | demethylation by KDM4A-E (KDM4A-E) | Fold change (+UV/-UV) (KDM4A-I71AzF) |
| --- | --- | --- |
| SSRP1_HUMAN | – | 0 |
| SYEP_HUMAN | – | 0.6667 |
| SYNM_HUMAN | – | 1 |
| TBA1B_HUMAN | – | 0.8182 |
| TCPA_HUMAN | – | 2 |
| TCPE_HUMAN | – | 0.3333 |
| TCPG_HUMAN | – | 4 |
| TCPH_HUMAN | – | 1.333 |
| TCPZ_HUMAN | – | 1 |
| TERA_HUMAN | – | 1.125 |
| TLN1_HUMAN | – | 0 |
| TPR_HUMAN | – | 0.6212 |
| U5S1_HUMAN | – | 0.6 |
| U520_HUMAN | – | 0.6129 |
| UGGG1_HUMAN | – | 1 |
| VIME_HUMAN | – | 0.875 |
| WENTLHTL[Lys(Me3)]QRQLTSYV [compound 17, NUP107-K305me3 peptide] | failed to undergo demethylation by KDM4A-E | – |
| XRCC5_HUMAN | – | 0.5 |
| XRCC6_HUMAN | – | 0.3333 |
| YLPM1_HUMAN | – | 0.6923 |
| ZN207_HUMAN | – | 1 |
| ZO1_HUMAN | – | 1 |
